Assay results published in patent publication US20160303182A1, “USE OF PEPTIDES IN ANTIBIOTIC RESISTANCE” (priority 2013, published 2016).
Bridges are numbered along the chain shown (N, C = ends). Where no end group is shown, it is not given here.

Assays:
[1] = tested on: Klebsiella pneumoniae ATCC 700603 (MDR resistant strain); assay: CFU count after 24 h incubation with antibiotic alone or with grZ14s-nvCyc; format: cell-based
Method: Klebsiella pneumoniae ATCC 700603 (MDR resistant strain: Resistant to ampicillin, aztreonam, cefoxitin, cefpodoxime, ceftazidime, chloramphenicol, piperacillin, tetracycline) (3×10^5 CFU/mL) was incubated with either ampicillin, alone or with the grZ14s-nvCyc peptide (10 nM), for 24 hours at 37° C. with shaking (250 rpm). The solutions in the tubes were diluted ten-fold with phosphate buffered saline (PBS) by serial dilutions. The diluted solutions were then seeded on a blood plate agar and incubated at 37° C. for 24 hours.
A similar assay was performed with K. pneumoniae at lower bacterial concentrations of 2×10^3 CFU/mL.
K. pneumoniae ATCC 700603 (MDR resistant strain: Resistant to ampicillin, aztreonam, cefoxitin, cefpodoxime, ceftazidime, chloramphenicol, piperacillin, tetracycline) (2×10^6 CFU/mL) was incubated with either cefoxitin, alone or with the grZ14s-nvCyc peptide (10 nM), for 24 hours at 37° C. with shaking (250 rpm). The solutions were then treated as described in the examples above.
Similarly, K. pneumoniae ATCC 700603 (MDR resistant strain: Resistant to ampicillin, aztreonam, cefoxitin, cefpodoxime, ceftazidime, chloramphenicol, piperacillin, tetracycline) (4×10^6 CFU/mL) was incubated with chloramphenicol, alone or with grZ14s-nvCyc, as described in the Examples above.
Similarly, K. pneumoniae ATCC 700603 (MDR resistant strain: Resistant to ampicillin, aztreonam, cefoxitin, cefpodoxime, ceftazidime, chloramphenicol, piperacillin, tetracycline) (1×10^3 CFU/mL) was incubated with chloramphenicol, alone or with grZ14s-nvCyc, as described in the Examples above.

[2] = tested on: methicillin sensitive S. aureus ATCC 25923 (MSSA); assay: as above; format: cell-based, Staphylococcus aureus
Method: (§1) Staphylococcus aureus ATCC 43300 (5×10^5 CFU/mL) (MRSA strain) was incubated in 1.5 mL Eppendorf tubes with either oxacillin alone or oxacillin with the grZ14s-nvCyc peptide (10 nM) (cyclized CSVHSFDYDWYNVC) for 24 hours at 37° C. with shaking (250 rpm). The solutions in the tubes were diluted ten-fold with phosphate buffered saline (PBS) by serial dilutions. The diluted solutions were then seeded on a blood agar plate and incubated at 37° C. for 24 hours. The results represent the number of Colony Forming Unit (CFU) counts on the blood agar plates.
As a comparison, a strain of methicillin sensitive S. aureus ATCC 25923 (5×10^5 CFU/mL) was treated with oxacillin, alone or with the grZ14s-nvCyc (10 nM).
(§2) A similar assay was performed with S. aureus ATCC 43300 at a concentration of 7×10^6 CFU/mL. The bacterial concentration in this assay is higher (˜7×10^6 CFU/mL).
(§3) S. aureus ATCC 33591 (MRSA strain) (5×10^7 CFU/mL) and methicillin sensitive strain (MSSA) of S. aureus ATCC 25923 (1×10^8 CFU/mL) were incubated in 1.5 mL Eppendorf tubes with either oxacillin alone or oxacillin with the grZ14s-nvCyc (10 nM) for 24 hours at 37° C. with shaking (250 rpm). The solutions in the tubes were diluted ten-fold with PBS by serial dilutions. The diluted solutions were then seeded on a blood plate agar and incubated at 37° C. for 24 hours.

[3] = tested on: K. pneumoniae ATCC BAA 1705 (carbapenemase positive strain); assay: as above; format: cell-based, Klebsiella pneumoniae
Method: K. pneumoniae ATCC BAA® 1705 (3×10^2 CFU/mL) (carbapenemase positive strain) (carbapenem-imipenem and ertapenem, amikacin, aztreonam, levofloxacin and ciprofloxacin-resistant strain) was incubated with imipenem, alone or with the grZ14s-nvCyc peptide (10 nM), for 24 hours at 37° C. with shaking (250 rpm). The solutions were then treated as described in the examples above. […]
Similarly, K. pneumoniae ATCC BAA® 1705 (1×10^5 CFU/mL) was incubated with ciprofloxacin, alone or with grZ14s-nvCyc, as described in the Examples above. […]
K. pneumoniae ATCC BAA® 1705 (2×10^6 CFU/mL) (carbapenem-imipenem and ertapenem, amikacin, aztreonam, levofloxacin and ciprofloxacin-resistant strain) was incubated with levofloxacin, alone or with grZ14s-nvCyc, as described in the Examples above.
K. pneumoniae ATCC BAA® 1705 (1×10^5 CFU/mL) (carbapenem-imipenem and ertapenem, amikacin, aztreonam, levofloxacin and ciprofloxacin-resistant strain) was incubated with aztreonam, alone or with grZ14s-nvCyc, as described in the Examples above. […]

[4] = tested on: S. aureus ATCC BAA 1708 (MRSA strain, mupA positive); assay: CFU count after incubation with mupirocin alone or with grZ14s-nvCyc; format: cell-based, Staphylococcus aureus; conditions: 1×10^5 CFU/mL; 10 nM grZ14s-nvCyc; FIG. 12
Method: as §1
S. aureus ATCC BAA® 1708 (MRSA strain, mupA positive) (1×10^5 CFU/mL) was incubated with mupirocin, alone or with grZ14s-nvCyc as described in the Examples above.

[5] = tested on: Enterococcus faecium ATCC 700221 (vancomycin, teicoplanin and tetracyclin resistant strain); assay: CFU count after 24 h incubation with antibiotic alone or with grZ14s-nvCyc; format: cell-based; conditions: for bacteria killing concentration of tetracyclin lower with grZ14s-nvCyc than with tetracyclin alone: grZ14s-nvCyc (10 mN)
Method: (§4) Enterococcus faecium ATCC 700221 (4×10^2 CFU/mL) (vancomycin, teicoplanin and tetracyclin resistant strain) was incubated in 1.5 mL Eppendorf tubes with either vancomycin, alone or with the grZ14s-nvCyc peptide (10 nM), for 24 hours at 37° C. with shaking (250 rpm). The solutions in the tubes were diluted ten-fold with phosphate buffered saline (PBS) by serial dilutions. The diluted solutions were then seeded on a blood plate agar and incubated at 37° C. for 24 hours.
E. faecium ATCC 700221 (2×10^2 CFU/mL) (vancomycin, teicoplanin and tetracyclin resistant strain) was incubated with either teicoplanin, alone or with the grZ14s-nvCyc peptide (10 nM), for 24 hours at 37° C. with shaking (250 rpm). The solutions were treated as described above.
E. faecium ATCC 700221 (1×10^3 CFU/mL) (vancomycin, teicoplanin and tetracyclin resistant strain) was incubated with tetracyclin, alone or with grZ14s-nvCyc ([…]), as described in the Examples above. […] Similarly, E. faecium ATCC 700221 (2×10^5 CFU/mL) (vancomycin, teicoplanin and tetracyclin resistant strain) was incubated with tetracyclin, alone or with grZ14s-nvCyc ([…]), as described in the Examples above.

[6] = tested on: Staphylococcus aureus ATCC 43300 (MRSA strain); assay: as above; format: cell-based; conditions: for bacteria killing concentration of oxacillin with grZ14s-nvCyc versus oxacillin alone: 10 nM grZ14s-nvCyc
Method: as §1, §2

[7] = tested on: S. aureus ATCC 33591 (MRSA strain); assay: as above; format: cell-based, Staphylococcus aureus; conditions: 10 nM grZ14s-nvCyc
Method: as §3
as §4, with “S. aureus” for “Enterococcus faecium”, “33591 (5×10^5” for “700221 (4×10^2”, “(MRSA” for “(vancomycin, teicoplanin and tetracyclin resistant”, “oxacillin,” for “either vancomycin,”, “rpm). […]” for “rpm).”

With `CC1(C)S[C@@H]2[C@H](NC(=O)[C@H](N)c3ccccc3)C(=O)N2[C@H]1C(=O)O` [ampicillin, reference compound] the “bacteria killing by ampicillin alone” value ([1]; 2×10^3 CFU/mL, FIG. 8) was “achieves bacteria killing with the antibiotic alone” and the “bacterial killing by ampicillin alone” value ([1]; 3×10^5 CFU/mL, even very high concentrations of ampicillin, FIG. 7) was “could not achieve bacterial killing”.

In the case of `Cc1onc(-c2ccccc2)c1C(=O)N[C@@H]1C(=O)N2[C@@H]1SC(C)(C)[C@@H]2C(=O)O` [oxacillin, reference compound], the “oxacillin concentration needed to kill the bacteria” value ([2]; ~7×10^6 CFU/mL, oxacillin alone, FIG. 2) is reported as 12.5 µg/mL.

`C[C@H]1[C@H](NC(=O)/C(=N\OC(C)(C)C(=O)O)c2csc(N)n2)C(=O)N1S(=O)(=O)O` [aztreonam, reference compound] was tested, and the “bacteria killing by aztreonam alone” value ([3]; 1×10^3 CFU/mL, FIG. 19b) was “able achieve bacteria killing activity” and the “bacteria killing by aztreonam alone” value ([3]; 1×10^5 CFU/mL, at 1000 μg/ml aztreonam, FIG. 19) was “does not achieve bacteria killing”.

For `O=C(N[C@H](CO)[C@H](O)c1ccc([N+](=O)[O-])cc1)C(Cl)Cl` [chloramphenicol, reference compound], the “bacteria killing by chloramphenicol alone” value ([1]; 1×10^3 CFU/mL, FIG. 16) was “can achieve bacteria killing activity” and the “bacteria killing by chloramphenicol alone” value ([1]; 4×10^6 CFU/mL, at the concentration where the combination kills, FIG. 15) was “does not achieve bacteria killing”.

With “cyclized CSVHSFDYDWYNVC (disulfide 1-14 (inferred); not fully specified) [grZ14s-nvCyc]” the “bacterial load in the presence of a combination of mupirocin and grZ14s-nvCyc” value [4] was “reduced by at least one order of magnitude”, the “bacteria killing concentration of chloramphenicol with grZ14s-nvCyc lower than with chloramphenicol alone” value ([1]; 1×10^3 CFU/mL, 10 nM grZ14s-nvCyc, FIG. 16) was 20% and the “bacteria killing concentration of ampicillin lower with grZ14s-nvCyc than with ampicillin alone” value ([1]; 2×10^3 CFU/mL, 10 nM grZ14s-nvCyc, FIG. 8) was 100 µg/mL. The “bacteria killing concentration of cefoxitin lower with grZ14s-nvCyc than in cefoxitin alone” value ([1]; 2×10^6 CFU/mL, 10 nM grZ14s-nvCyc, FIG. 9) was over 80%, the “bacteria killing activity of ampicillin with grZ14s-nvCyc at lower concentrations” value ([1]; 3×10^5 CFU/mL, 10 nM grZ14s-nvCyc, FIG. 7) was about 100% and the “bacteria killing by chloramphenicol with grZ14s-nvCyc” value ([1]; 4×10^6 CFU/mL, 10 nM grZ14s-nvCyc, FIG. 15) was “achieves bacteria killing at a concentration where chloramphenicol alone does not achieve bacteria killing”. For the same compound, the “bacteria killing concentration of ciprofloxacin lower with grZ14s-nvCyc than with ciprofloxacin alone” value ([3]; 1×10^5 CFU/mL, 10 nM grZ14s-nvCyc, FIG. 14) was 80%, the “aztreonam concentration at which aztreonam with grZ14s-nvCyc achieves bacteria killing” value ([3]; 1×10^5 CFU/mL, 10 nM grZ14s-nvCyc, FIG. 19) was 1000 µg/mL and the “bacteria killing concentration of amikacin with grZ14s-nvCyc lower than with amikacin alone” value ([3]; 1×10^6 CFU/mL, incubated with amikacin, alone or with grZ14s-nvCyc, FIG. 17) was 75%. The “bacteria killing concentration of levofloxacin with grZ14s-nvCyc lower than with levofloxacin alone” value ([3]; 2×10^6 CFU/mL, 10 nM grZ14s-nvCyc, FIG. 18) was 30%, the “bacteria killing concentration of imipenem lower with grZ14s-nvCyc than in imipenem alone” value ([3]; 3×10^2 CFU/mL, 10 nM grZ14s-nvCyc, FIG. 10) was over 75% and the “bacteria killing concentration of tetracyclin lower with grZ14s-nvCyc than with tetracyclin alone” value ([5]; 1×10^3 CFU/mL, FIG. 13a) was 60%. The “bacteria killing concentration of teicoplanin lower with grZ14s-nvCyc than with teicoplanin alone” value ([5]; 2×10^2 CFU/mL, 10 nM grZ14s-nvCyc, FIG. 6) was “about 60%”, the “bacteria killing concentration of tetracyclin lower with grZ14s-nvCyc than with tetracyclin alone” value ([5]; 2×10^5 CFU/mL, FIG. 13b) was about 70% and the “bacteria killing concentration of vancomycin lower with grZ14s-nvCyc than with vancomycin alone” value ([5]; 4×10^2 CFU/mL, 10 nM grZ14s-nvCyc, FIG. 5) was “about 50%”. The “bacteria killing concentration of oxacillin with grZ14s-nvCyc versus oxacillin alone” value ([6]; 5×10^5 CFU/mL, 24 h, 37° C., FIG. 1a) was “much lower”, the “bacteria killing concentration of oxacillin with grZ14s-nvCyc versus oxacillin alone” value ([6]; 7×10^6 CFU/mL, FIG. 2) was “much lower” and the “oxacillin concentration needed to kill the bacteria, with grZ14s-nvCyc” value ([6]; ~7×10^6 CFU/mL, oxacillin with 10 nM grZ14s-nvCyc, FIG. 2) was 6.25 µg/mL. For the same compound, the “bacteria killing concentration of oxacillin with grZ14s-nvCyc versus oxacillin alone” value ([7]; 5×10^5 CFU/mL, FIG. 4a) was “much lower”, the “bacteria killing concentration of oxacillin in the presence of the peptide versus oxacillin alone” value ([7]; 5×10^7 CFU/mL, FIG. 3) was “reduced to about half” and the “difference between the activity of oxacillin with or without grZ14s-nvCyc” value ([2]; 1×10^6 CFU/mL, 10 nM grZ14s-nvCyc, FIG. 4b) was “no significant difference”. The “bacteria killing concentration of oxacillin in the presence of the peptide versus oxacillin alone” value ([2]; 1×10^8 CFU/mL, 10 nM grZ14s-nvCyc, FIG. 3) was “reduced to about half” and the “difference between the activity of oxacillin with or without grZ14s-nvCyc” value ([2]; 5×10^5 CFU/mL, 10 nM grZ14s-nvCyc, FIG. 1b) was “no significant difference”.
